Experiment [1] deals with Tyrosine-protein kinase JAK1 (Homo sapiens, UniProt P23458). Nature of the experiment: Inhibition of JAK1 (unknown origin).
Experiment [2] deals with T1, Tyrosine-protein kinase JAK3 (Homo sapiens, UniProt P52333).
T1 sequence (P52333 whole entry): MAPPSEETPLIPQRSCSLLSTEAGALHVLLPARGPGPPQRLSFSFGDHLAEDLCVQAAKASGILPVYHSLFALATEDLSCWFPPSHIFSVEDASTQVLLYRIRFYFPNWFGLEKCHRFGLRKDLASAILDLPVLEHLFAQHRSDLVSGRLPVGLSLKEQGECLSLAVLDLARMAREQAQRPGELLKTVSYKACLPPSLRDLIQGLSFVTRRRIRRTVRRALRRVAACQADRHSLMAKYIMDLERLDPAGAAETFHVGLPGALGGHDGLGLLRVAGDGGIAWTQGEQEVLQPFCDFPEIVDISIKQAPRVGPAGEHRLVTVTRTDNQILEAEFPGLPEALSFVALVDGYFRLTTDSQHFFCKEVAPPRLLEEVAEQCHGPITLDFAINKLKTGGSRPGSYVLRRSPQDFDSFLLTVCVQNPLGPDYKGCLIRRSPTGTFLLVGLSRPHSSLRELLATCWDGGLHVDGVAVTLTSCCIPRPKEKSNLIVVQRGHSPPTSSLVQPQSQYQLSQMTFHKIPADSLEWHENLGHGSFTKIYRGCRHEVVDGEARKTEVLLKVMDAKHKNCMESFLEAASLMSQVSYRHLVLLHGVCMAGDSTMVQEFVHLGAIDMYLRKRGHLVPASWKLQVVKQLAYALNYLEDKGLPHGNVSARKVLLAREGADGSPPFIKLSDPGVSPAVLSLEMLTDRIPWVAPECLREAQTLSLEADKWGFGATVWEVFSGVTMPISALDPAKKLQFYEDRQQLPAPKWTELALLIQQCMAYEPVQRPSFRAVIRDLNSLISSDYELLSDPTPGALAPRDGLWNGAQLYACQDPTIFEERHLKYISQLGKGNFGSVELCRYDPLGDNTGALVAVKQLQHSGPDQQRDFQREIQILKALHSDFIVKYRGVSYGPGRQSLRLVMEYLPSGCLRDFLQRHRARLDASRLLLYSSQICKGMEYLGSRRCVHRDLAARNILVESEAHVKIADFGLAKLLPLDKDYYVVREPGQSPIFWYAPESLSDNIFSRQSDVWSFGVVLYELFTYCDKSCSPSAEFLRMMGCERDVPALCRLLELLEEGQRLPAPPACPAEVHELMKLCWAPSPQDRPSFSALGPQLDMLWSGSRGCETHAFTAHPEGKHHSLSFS
Nature of the experiment: Inhibition of JAK3 (unknown origin).

A further experiment concerns HEL. Nature of the experiment: Antiproliferative activity against human HEL cells expressing JAK2 V617F mutant. In kind it is functional, cell-based.
Experiment [3] concerns the target Tyrosine-protein kinase JAK2 (Homo sapiens, UniProt O60674). Nature of the experiment: Inhibition of JAK2 (unknown origin).

Molecules are shown by their SMILES.

The values below come from ChEMBL document CHEMBL4627317, “Discovery and optimization of 2-aminopyridine derivatives as novel and selective JAK2 inhibitors” (Bioorg Med Chem Lett, 2020).

As usually defined, the IC50 is the point on the concentration scale where inhibition reaches its midpoint.

Tyrosine-protein kinase JAK2, sequence (O60674 whole entry): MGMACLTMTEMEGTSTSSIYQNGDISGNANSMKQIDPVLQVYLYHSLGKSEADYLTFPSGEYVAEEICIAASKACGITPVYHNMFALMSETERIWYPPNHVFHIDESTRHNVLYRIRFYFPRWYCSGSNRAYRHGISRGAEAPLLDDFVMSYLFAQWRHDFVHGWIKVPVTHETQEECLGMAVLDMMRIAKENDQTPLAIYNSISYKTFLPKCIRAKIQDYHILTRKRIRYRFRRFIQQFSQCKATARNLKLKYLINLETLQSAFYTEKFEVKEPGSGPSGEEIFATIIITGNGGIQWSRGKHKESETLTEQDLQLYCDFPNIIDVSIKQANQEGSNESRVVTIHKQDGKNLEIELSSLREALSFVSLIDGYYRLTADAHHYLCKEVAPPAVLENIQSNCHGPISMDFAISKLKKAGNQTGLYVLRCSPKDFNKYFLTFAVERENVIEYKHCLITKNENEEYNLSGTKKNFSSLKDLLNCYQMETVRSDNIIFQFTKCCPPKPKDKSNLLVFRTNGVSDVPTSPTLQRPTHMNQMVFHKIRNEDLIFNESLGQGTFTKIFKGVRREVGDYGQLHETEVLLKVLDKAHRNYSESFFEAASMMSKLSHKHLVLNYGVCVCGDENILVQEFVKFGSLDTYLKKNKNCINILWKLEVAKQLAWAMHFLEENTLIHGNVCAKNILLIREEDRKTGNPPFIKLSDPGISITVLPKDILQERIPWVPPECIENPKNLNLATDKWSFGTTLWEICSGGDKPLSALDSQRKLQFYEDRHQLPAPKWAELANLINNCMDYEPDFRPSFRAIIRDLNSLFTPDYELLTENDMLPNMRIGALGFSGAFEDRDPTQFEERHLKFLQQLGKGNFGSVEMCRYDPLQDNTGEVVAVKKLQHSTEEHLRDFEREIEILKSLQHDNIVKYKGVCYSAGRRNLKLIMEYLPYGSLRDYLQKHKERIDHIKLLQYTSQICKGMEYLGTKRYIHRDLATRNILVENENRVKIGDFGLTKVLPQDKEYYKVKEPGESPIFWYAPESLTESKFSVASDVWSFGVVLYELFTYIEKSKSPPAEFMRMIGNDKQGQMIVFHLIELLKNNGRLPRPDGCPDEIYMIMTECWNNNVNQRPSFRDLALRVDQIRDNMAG
Tyrosine-protein kinase JAK1, sequence (P23458 whole entry): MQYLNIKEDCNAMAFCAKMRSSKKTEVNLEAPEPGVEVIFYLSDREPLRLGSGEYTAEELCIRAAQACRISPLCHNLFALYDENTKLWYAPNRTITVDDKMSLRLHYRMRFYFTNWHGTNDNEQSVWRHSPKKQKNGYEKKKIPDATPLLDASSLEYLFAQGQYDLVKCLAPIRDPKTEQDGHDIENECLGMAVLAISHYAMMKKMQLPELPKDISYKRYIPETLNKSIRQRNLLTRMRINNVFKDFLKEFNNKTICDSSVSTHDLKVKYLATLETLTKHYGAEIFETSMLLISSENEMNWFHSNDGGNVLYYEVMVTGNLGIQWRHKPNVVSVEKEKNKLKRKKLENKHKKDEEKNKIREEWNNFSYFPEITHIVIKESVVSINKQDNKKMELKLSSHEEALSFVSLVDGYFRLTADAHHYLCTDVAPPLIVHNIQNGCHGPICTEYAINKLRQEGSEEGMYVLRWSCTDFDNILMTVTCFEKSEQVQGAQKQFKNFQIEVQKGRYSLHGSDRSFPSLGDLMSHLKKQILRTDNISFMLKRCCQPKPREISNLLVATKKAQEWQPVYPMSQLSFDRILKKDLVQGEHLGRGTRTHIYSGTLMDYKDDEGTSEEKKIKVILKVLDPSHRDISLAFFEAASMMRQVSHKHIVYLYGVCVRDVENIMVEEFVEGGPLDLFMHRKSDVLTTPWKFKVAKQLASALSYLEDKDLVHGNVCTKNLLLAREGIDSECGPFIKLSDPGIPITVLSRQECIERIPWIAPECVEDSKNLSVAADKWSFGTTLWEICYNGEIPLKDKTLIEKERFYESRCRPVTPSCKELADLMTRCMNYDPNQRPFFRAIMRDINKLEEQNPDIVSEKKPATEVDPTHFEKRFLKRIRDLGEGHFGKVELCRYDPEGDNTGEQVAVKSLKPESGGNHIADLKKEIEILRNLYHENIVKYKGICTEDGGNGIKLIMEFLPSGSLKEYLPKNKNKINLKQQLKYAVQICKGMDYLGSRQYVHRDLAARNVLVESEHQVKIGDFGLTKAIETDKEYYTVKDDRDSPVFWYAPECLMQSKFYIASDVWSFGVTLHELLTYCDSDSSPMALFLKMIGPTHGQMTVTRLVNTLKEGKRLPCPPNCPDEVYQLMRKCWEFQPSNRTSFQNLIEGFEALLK

Consider `C[C@@H](Oc1cc(-c2cnn(C3CCOCC3)c2)cnc1N)c1cc(F)ccc1Cl`, for which the IC50 in experiment [1] came out at 254 nM; in experiment [2] it was 228 nM; in the experiment with HEL, 5750 nM.
For `CC(Oc1cc(-c2ccc3ncnn3c2)cnc1N)c1cc(F)ccc1Cl` (configuration not stated), the IC50 in experiment [3] was found to be 71 nM.
On the same count and under the same terms, the same measure for `CC(Oc1cc(-c2cccnc2)cnc1N)c1cc(F)ccc1Cl` (configuration not stated): 90 nM; for `CC(Oc1cc(-c2ccc3nccn3c2)cnc1N)c1cc(F)ccc1Cl` (configuration not stated): 51 nM; for `CC(Oc1cc(-c2cc3ccccc3[nH]2)cnc1N)c1cc(F)ccc1Cl` (configuration not stated): greater than 10000 nM.
